Assay results: the OligoGym collection
HELM strings list units from the 5' end as sugar, base in round brackets, then linkage (d deoxyribose, r ribose, m 2'-O-methyl, p phosphodiester). Strings are as the collection lists them; they lack the last nucleoside at the 3' end of the tested compound. [moe] = 2'-O-(2-methoxyethyl) (MOE); [sp] = phosphorothioate linkage; [m5C] = 5-methylcytosine

Target: UBE3A-ATS
Assay: mouse, dose not given
Details: ASO

In the case of “RNA1{[moe]([m5C])[sp].[moe](T)p.[moe](T)p.[moe](T)p.[moe](A)p.d(T)[sp].d(A)[sp].d([m5C])[sp].d(T)[sp].d(T)[sp].d(T)[sp].d(A)[sp].d([m5C])[sp].d([m5C])[sp].d([m5C])[sp].[moe](A)p.[moe](A)p.[moe]([m5C])[sp].[moe](T)}$$$$ (last 3' nucleoside missing)”, the 3 h FOB score is reported as 0 score 0-7.

“RNA1{[moe]([m5C])[sp].[moe](T)p.[moe](T)p.[moe](T)p.[moe]([m5C])p.d(A)[sp].d(T)[sp].d([m5C])[sp].d(A)[sp].d(G)[sp].d(T)[sp].d(T)[sp].d(A)[sp].d(G)[sp].d(T)[sp].[moe]([m5C])p.[moe](A)p.[moe](G)[sp].[moe](G)}$$$$ (last 3' nucleoside missing)” showed a 3 h FOB score of 3.5 score 0-7.

“RNA1{[moe]([m5C])[sp].[moe](T)p.[moe](T)p.[moe]([m5C])[sp].d(A)[sp].d([m5C])[sp].d([m5C])[sp].d(A)[sp].d(T)[sp].d(T)[sp].d(T)[sp].d(T)[sp].[moe](G)p.[moe](A)p.[moe]([m5C])p.[moe]([m5C])[sp].[moe](T)}$$$$ (last 3' nucleoside missing)” showed a 3 h FOB score of 0 score 0-7.

In the case of “RNA1{[moe]([m5C])[sp].[moe](T)p.[moe](T)p.[moe]([m5C])p.[moe](A)p.[moe]([m5C])p.d([m5C])[sp].d(A)[sp].d(T)[sp].d(T)[sp].d(T)[sp].d(T)[sp].d(G)[sp].d(A)[sp].d([m5C])[sp].d([m5C])[sp].[moe](T)p.[moe](T)[sp].[moe]([m5C])}$$$$ (last 3' nucleoside missing)”, the 3 h FOB score is reported as 1 score 0-7.

For “RNA1{[moe]([m5C])[sp].[moe](T)p.[moe](T)p.[moe]([m5C])p.[moe](A)p.d(A)[sp].d([m5C])[sp].d(T)[sp].d(A)[sp].d(A)[sp].d([m5C])[sp].d(A)[sp].d(G)[sp].d(T)[sp].d(A)[sp].[moe](T)p.[moe]([m5C])p.[moe](T)[sp].[moe](T)}$$$$ (last 3' nucleoside missing)”, the 3 h FOB score was 0 score 0-7.

In the case of “RNA1{[moe]([m5C])[sp].[moe](T)p.[moe](T)p.[moe]([m5C])p.[moe](A)p.d(T)[sp].d(T)[sp].d(A)[sp].d(T)[sp].d(T)[sp].d([m5C])[sp].d(T)[sp].d([m5C])[sp].d(T)[sp].d(A)[sp].[moe](G)p.[moe](T)p.[moe](G)[sp].[moe]([m5C])}$$$$ (last 3' nucleoside missing)”, the 3 h FOB score is reported as 0 score 0-7.

“RNA1{[moe]([m5C])[sp].[moe](T)p.[moe](T)p.[moe]([m5C])p.[moe](A)p.d([m5C])[sp].d([m5C])[sp].d(A)[sp].d(T)[sp].d(T)[sp].d(T)[sp].d(T)[sp].d(G)[sp].d(A)[sp].d([m5C])[sp].[moe]([m5C])p.[moe](T)p.[moe](T)[sp].[moe]([m5C])}$$$$ (last 3' nucleoside missing)” gave a 3 h FOB score of 1 score 0-7.

For “RNA1{[moe]([m5C])[sp].[moe](T)p.[moe](T)p.[moe]([m5C])p.d(A)[sp].d([m5C])[sp].d([m5C])[sp].d(A)[sp].d(T)[sp].d(T)[sp].d(T)[sp].d(T)[sp].d(G)[sp].d(A)[sp].[moe]([m5C])p.[moe]([m5C])p.[moe](T)p.[moe](T)[sp].[moe]([m5C])}$$$$ (last 3' nucleoside missing)”, the 3 h FOB score was 1 score 0-7.

For “RNA1{[moe]([m5C])[sp].[moe](T)p.[moe]([m5C])p.[moe](A)[sp].d(G)[sp].d(T)[sp].d(T)[sp].d(A)[sp].d(G)[sp].d(G)[sp].d(T)[sp].d(T)[sp].[moe](A)p.[moe](G)p.[moe](T)p.[moe](G)[sp].[moe]([m5C])}$$$$ (last 3' nucleoside missing)”, the 3 h FOB score was 5.3 score 0-7.

Work on “RNA1{[moe]([m5C])[sp].[moe](T)p.[moe]([m5C])p.[moe](A)p.[moe](G)[sp].d(T)[sp].d(T)[sp].d(A)[sp].d(G)[sp].d(G)[sp].d(T)[sp].d(T)[sp].d(A)[sp].[moe](G)p.[moe](T)p.[moe](G)[sp].[moe]([m5C])}$$$$ (last 3' nucleoside missing)” yielded a 3 h FOB score of 1.3 score 0-7.

With “RNA1{[moe]([m5C])[sp].[moe](T)p.[moe]([m5C])p.[moe](A)p.[moe](G)p.[moe](T)[sp].d(T)[sp].d(A)[sp].d(G)[sp].d(G)[sp].d(T)[sp].d(T)[sp].d(A)[sp].d(G)[sp].[moe](T)p.[moe](G)[sp].[moe]([m5C])}$$$$ (last 3' nucleoside missing)” the 3 h FOB score was 6.3 score 0-7.

“RNA1{[moe]([m5C])[sp].[moe](T)p.[moe]([m5C])p.[moe](A)p.[moe](G)p.[moe](T)p.d(T)[sp].d(A)[sp].d(G)[sp].d(G)[sp].d(T)[sp].d(T)[sp].d(A)[sp].d(G)[sp].d(T)[sp].d(G)[sp].[moe]([m5C])p.[moe](A)[sp].[moe]([m5C])}$$$$ (last 3' nucleoside missing)” gave a 3 h FOB score of 4 score 0-7.

“RNA1{[moe]([m5C])[sp].[moe](T)p.[moe]([m5C])p.[moe](A)p.[moe](G)p.d(T)[sp].d(T)[sp].d(A)[sp].d(G)[sp].d(G)[sp].d(T)[sp].d(T)[sp].d(A)[sp].d(G)[sp].d(T)[sp].[moe](G)p.[moe]([m5C])p.[moe](A)[sp].[moe]([m5C])}$$$$ (last 3' nucleoside missing)” showed a 3 h FOB score of 6 score 0-7.

Substance “RNA1{[moe]([m5C])[sp].[moe](T)p.[moe]([m5C])p.[moe](A)p.d(G)[sp].d(T)[sp].d(T)[sp].d(A)[sp].d(G)[sp].d(G)[sp].d(T)[sp].d(T)[sp].d(A)[sp].d(G)[sp].[moe](T)p.[moe](G)p.[moe]([m5C])p.[moe](A)[sp].[moe]([m5C])}$$$$ (last 3' nucleoside missing)” has a 3 h FOB score of 4 score 0-7.

In the case of “RNA1{[moe]([m5C])[sp].[moe](T)p.[moe]([m5C])p.[moe]([m5C])p.[moe](A)p.d(G)[sp].d(T)[sp].d(T)[sp].d(T)[sp].d(T)[sp].d([m5C])[sp].d(G)[sp].d([m5C])[sp].d([m5C])[sp].d([m5C])[sp].[moe](G)p.[moe](T)p.[moe](T)[sp].[moe](A)}$$$$ (last 3' nucleoside missing)”, the 3 h FOB score is reported as 3.3 score 0-7.

In the case of “RNA1{[moe]([m5C])[sp].[moe]([m5C])p.[moe](A)p.[moe](A)p.[moe](T)p.d(A)[sp].d(T)[sp].d(T)[sp].d(T)[sp].d(T)[sp].d(G)[sp].d(A)[sp].d([m5C])[sp].d(T)[sp].d(A)[sp].[moe](G)p.[moe](T)p.[moe](T)[sp].[moe]([m5C])}$$$$ (last 3' nucleoside missing)”, the 3 h FOB score is reported as 4.2 score 0-7.

“RNA1{[moe]([m5C])[sp].[moe]([m5C])p.[moe](A)p.[moe](A)p.[moe]([m5C])p.d(T)[sp].d(T)[sp].d([m5C])[sp].d(A)[sp].d(T)[sp].d([m5C])[sp].d(A)[sp].d(A)[sp].d(T)[sp].d(A)[sp].[moe](T)p.[moe](T)p.[moe](T)[sp].[moe]([m5C])}$$$$ (last 3' nucleoside missing)” was tested, and the 3 h FOB score was 0 score 0-7.

Substance “RNA1{[moe]([m5C])[sp].[moe]([m5C])p.[moe](A)p.[moe](G)p.[moe](G)p.d(T)[sp].d(G)[sp].d(T)[sp].d([m5C])[sp].d(T)[sp].d(T)[sp].d(A)[sp].d(T)[sp].d(A)[sp].d(T)[sp].[moe]([m5C])p.[moe](T)p.[moe](A)[sp].[moe](T)}$$$$ (last 3' nucleoside missing)” has a 3 h FOB score of 1 score 0-7.

With “RNA1{[moe]([m5C])[sp].[moe]([m5C])p.[moe](A)p.[moe](G)p.[moe](T)p.d(T)[sp].d(T)[sp].d(T)[sp].d([m5C])[sp].d(G)[sp].d([m5C])[sp].d([m5C])[sp].d([m5C])[sp].d(G)[sp].d(T)[sp].[moe](T)p.[moe](A)p.[moe]([m5C])[sp].[moe]([m5C])}$$$$ (last 3' nucleoside missing)” the 3 h FOB score was 4.5 score 0-7.

In the case of “RNA1{[moe]([m5C])[sp].[moe]([m5C])p.[moe](A)p.[moe](G)p.[moe]([m5C])p.d([m5C])[sp].d(A)[sp].d(G)[sp].d(G)[sp].d(T)[sp].d(G)[sp].d(T)[sp].d([m5C])[sp].d(T)[sp].d(T)[sp].[moe](A)p.[moe](T)p.[moe](A)[sp].[moe](T)}$$$$ (last 3' nucleoside missing)”, the 3 h FOB score is reported as 3.8 score 0-7.

With “RNA1{[moe]([m5C])[sp].[moe]([m5C])p.[moe](A)p.[moe](T)p.[moe](T)p.d(T)[sp].d(T)[sp].d(G)[sp].d(A)[sp].d([m5C])[sp].d([m5C])[sp].d(T)[sp].d(T)[sp].d([m5C])[sp].d(T)[sp].[moe](T)p.[moe](A)p.[moe](G)[sp].[moe]([m5C])}$$$$ (last 3' nucleoside missing)” the 3 h FOB score was 1 score 0-7.

“RNA1{[moe]([m5C])[sp].[moe]([m5C])p.[moe](A)p.[moe](T)p.[moe](T)p.d([m5C])[sp].d(A)[sp].d(G)[sp].d([m5C])[sp].d(A)[sp].d([m5C])[sp].d(T)[sp].d(T)[sp].d(A)[sp].d(G)[sp].[moe](G)p.[moe](T)p.[moe](A)[sp].[moe](G)}$$$$ (last 3' nucleoside missing)” showed a 3 h FOB score of 3.7 score 0-7.

Substance “RNA1{[moe]([m5C])[sp].[moe]([m5C])p.[moe](A)p.[moe]([m5C])p.[moe](A)p.d([m5C])[sp].d(A)[sp].d(T)[sp].d(A)[sp].d(T)[sp].d(A)[sp].d(G)[sp].d(G)[sp].d([m5C])[sp].d(T)[sp].[moe](A)p.[moe](G)p.[moe]([m5C])[sp].[moe]([m5C])}$$$$ (last 3' nucleoside missing)” has a 3 h FOB score of 1 score 0-7.

Work on “RNA1{[moe]([m5C])[sp].[moe]([m5C])p.[moe](T)p.[moe](A)p.[moe](T)p.d(A)[sp].d(G)[sp].d(G)[sp].d(T)[sp].d(G)[sp].d(G)[sp].d([m5C])[sp].d([m5C])[sp].d(T)[sp].d(T)[sp].[moe]([m5C])p.[moe](A)p.[moe](G)[sp].[moe](T)}$$$$ (last 3' nucleoside missing)” yielded a 3 h FOB score of 5 score 0-7.

Work on “RNA1{[moe]([m5C])[sp].[moe]([m5C])p.[moe](T)p.[moe](T)p.[moe](T)p.d([m5C])[sp].d(T)[sp].d(A)[sp].d(T)[sp].d(T)[sp].d(T)[sp].d([m5C])[sp].d(A)[sp].d(G)[sp].d(A)[sp].[moe]([m5C])p.[moe]([m5C])p.[moe](G)[sp].[moe](A)}$$$$ (last 3' nucleoside missing)” yielded a 3 h FOB score of 2.3 score 0-7.

Substance “RNA1{[moe]([m5C])[sp].[moe]([m5C])p.[moe](T)p.[moe]([m5C])p.[moe](T)p.d(T)[sp].d([m5C])[sp].d([m5C])[sp].d(A)[sp].d(A)[sp].d(A)[sp].d(A)[sp].d(T)[sp].d(T)[sp].d([m5C])[sp].[moe](T)p.[moe]([m5C])p.[moe](A)[sp].[moe]([m5C])}$$$$ (last 3' nucleoside missing)” has a 3 h FOB score of 0 score 0-7.
